Patent US8304420B2, “Substituted quinazolines for reducing platelet count” (Shire LLC, priority 2006, dated 2012)
Where two headings read alike, the source gives them in different places. Marks after values point to notes of the source that are not given here. One block for each molecule: values may come before it.

Key:
[1] = Solubilities of salts in three solvents (Example 2); conditions: for solubility at 3 min: 20 °C, thermodynamic from solid
Protocol: (§1) The solubilities of various salts was investigated in three solvents [distilled water (pH 5.0), 50 mM ammonium formate (pH 7.9) and 0.1 M hydrochloric acid (pH0.6)]. An excess of the salt was suspended in the chosen medium and sonicated for 3 minutes. The mixture was centrifuged for 10 minutes, the supernatant liquid was collected and the solubility was measured.

[2] = physchem; conditions: 20 °C, pH 5, water, thermodynamic from solid
Protocol: as §1

[3] = system: differentiation of human CD34+ stem cells into megakaryocytes; test: In vitro anti-megakaryocytic activity (model of megakaryocytopoiesis); type: cell-based
Description: Such activity may be assessed using a well established model. Assessment of the in vitro anti-megakaryocytic activity—and potentially therefore the platelet lowering capability—of the anagrelide prodrugs can be determined using the model of megakaryocytopoiesis (Cohen-Solal et al., Thromb. Haemost. 1997, 78:37-41 and Cramer et al, Blood, 1997, 89:2336-46). This involves examining the differentiation of human CD34^+ stem cells into megakaryocytes which ultimately give rise to blood platelets.

[4] = system: PDEIII; test: PDEIII inhibition; type: biochemical; conditions: more potent than anagrelide itself
[5] = Plasma exposure to metabolite after treatment with anagrelide; type: in vivo
[6] = Aqueous solubility / solubility-pH profile
[7] = dog, in vivo
Protocol: The potential benefit of improved water solubility on the absorption of these open-ring analogues was shown in a comparative bioavailability study in the dog. Using the unsubstituted ethyl-5,6-dichloro-3,4-dihydro-2-(1H)-iminoquinazoline-3-acetate HBr as a model compound, a comparison was made of the systemic availability of anagrelide when given as this compound or as anagrelide itself in equimolar doses (7.7 & 6.1 mg/kg respectively).
The metabolite-to-drug exposure ratio after anagrelide was 1.5 compared to 0.9 after the prodrug.
The lesser variability was consistent with more efficient absorption. This study illustrated the potential benefits of the open-ring prodrugs to improve absorption.

[8] = Radiolabelling study in humans, oral 14C-labelled drug; type: in vivo
Protocol: Anagrelide HCl itself is a poorly soluble drug substance. In the pH range of 4-8, the solubility is less than 10 μg/mL. […] Thus over much of the physiological pH range the drug has very poor aqueous solubility. Even material dissolving in the stomach at pH 1-2 may precipitate in the duodenum at pH 5-6. This presents potential problems for the quantitative absorption from the most likely site for absorption, namely the upper small intestine. As a consequence anagrelide is micronised prior to filling into capsules for clinical use to ensure maximal absorption. […] However for those patients requiring larger doses either as the result of relative insensitivity to the drug, higher first-pass pre-systemic metabolism or greater body weight, the possibility exists for incomplete absorption. This would be expected to lead to increased variability in attained plasma drug concentrations and consequential variability in patient response.

[9] = Conversion of prodrug to anagrelide in human plasma (LC/MS-MS); type: in vitro ADME; conditions: spiked 100 ng/mL, room temperature, first point of measurement immediately after mixing
Protocol: Such prodrugs are likely to be extremely rapidly and completely cyclised in plasma to the closed ring 3-alkylanagrelide analogues. […] Human plasma was spiked with anagrelide prodrug (final concentration 100 ng/mL). Immediately after mixing, and at 15, 30, 45 and 60 minutes afterward samples were analysed for anagrelide prodrug and anagrelide.

[10] = 50 mM ammonium formate, pH 7.9, aqueous buffer
[11] = 0.1 M hydrochloric acid, pH 0.6, simulated gastric fluid
[12] = estimated from the solubility/pH profile

solubility at 3 min [1, 10]: 0.004 mg/mL | solubility at 3 min [1, 11]: 0.215 mg/mL | solubility at 3 min ([1]; distilled water, pH 5, water): 0.02 mg/mL
Compound: Br.CC1(C)C(=O)NC2=Nc3ccc(Cl)cc3CN21

solubility at 3 min [1, 10]: 0.016 mg/mL | solubility at 3 min [1, 11]: 0.046 mg/mL | solubility at 3 min ([1]; distilled water, pH 5, water): 7.34 mg/mL
Compound: CC(C)(C(=O)[O-])N1Cc2c(ccc(Cl)c2Cl)N=C1N.[Na+]

solubility at 3 min [1, 10]: 0.001 mg/mL | solubility at 3 min [1, 11]: 0.035 mg/mL | solubility at 3 min ([1]; distilled water, pH 5, water): 0.002 mg/mL
Compound: Br.O=C1NC2=Nc3ccc(Cl)c(Cl)c3CN2C12CC2

solubility at 3 min [1, 11]: 6.43 mg/mL | Solubility, Ammonium formate (50 mM, pH 7.9) ([1]; ca. 20° C., 50 mM ammonium formate, pH 7.9): unstable | solubility at 3 min ([1]; distilled water, pH 5, water): 7.06 mg/mL
Compound: Br.COC(=O)C1(N2Cc3c(ccc(Cl)c3Cl)N=C2N)CC1

Compound: Cl.O=C1CN2Cc3c(ccc(Cl)c3Cl)N=C2N1
solubility at 3 min [1, 10]: 0.011 mg/mL | solubility at 3 min [1, 11]: 0.169 mg/mL | solubility at 3 min [2]: 0.01 mg/mL

IC50 [3]: ~0.16 µM
Compound: CC1(C)C(=O)NC2=Nc3ccc(Cl)c(Cl)c3CN21 [3, 3, dimethyl anagrelide]

plasma exposure to metabolite relative to the drug itself [5]: three times greater
Compound: O=C1NC2=Nc3ccc(Cl)c(Cl)c3CN2C1O (stereo not drawn) [3-hydroxyanagrelide]
potency as inhibitor of PDEIII relative to anagrelide [4]: ~40 fold

Compound: Cl.O.O=C1CN2Cc3c(ccc(Cl)c3Cl)N=C2N1 [anagrelide, 6,7-Dichloro-1,5-dihydroimidazo[2,1-b]-quinazolin-2(3H)-one hydrochloride monohydrate]
dissociation constant pKa1 [6, 12]: 2.9 | dissociation constant pKa2 [6, 12]: 9.8 | AUC for anagrelide, range across dogs ([7]; po): 21.6-188 ng.hmL^−1 | Cmax for anagrelide, range across dogs ([7]; po): 9.5-44.3 ngmL^−1 | inherent absorption ([7]; male, 6.1 mg/kg): < 6.25% | metabolite-to-drug exposure ratio ([7]; male, po): 1.5 | AUC0-t of 3-hydroxy anagrelide, mean ([7]; male, po, 6.1 mg/kg): 0.128 µg·h/mL | AUCinfin of 3-hydroxy anagrelide, mean ([7]; male, po, 6.1 mg/kg): 0.0799 µg·h/mL | Cmax of 3-hydroxy anagrelide, mean ([7]; male, po, 6.1 mg/kg): 0.0249 µg/mL | Tmax of 3-hydroxy anagrelide, median ([7]; male, po, 6.1 mg/kg): 1.5^b hours | t½ of 3-hydroxy anagrelide, calculated as ln2/(mean rate constant) ([7]; male, po, 6.1 mg/kg): 2.6^e hours | IC50 ([3]; hydrochloride monohydrate): ~0.027 µM | absorption ([8]; implied from urinary recovery after oral 1 mg): > 75% | administered radioactivity recovered in the urine ([8]; oral 1 mg 14C-labelled drug): > 75%

Compound: Br.CCOC(=O)CN1Cc2c(ccc(Cl)c2Cl)NC1=N [ethyl-5,6-dichloro-3,4-dihydro-2-(1H)-iminoquinazoline-3-acetate HBr]
solubility ([6]; distilled water): ~5.5 mg/mL | AUC for anagrelide, range across dogs ([7]; po): 367-1470 ng.hmL^−1 | Cmax for anagrelide, range across dogs ([7]; po): 170-418 ngmL^−1 | metabolite-to-drug exposure ratio ([7]; po): 0.9 | fold higher Cmax for anagrelide than when the drug itself was administered ([7]; po, 6.1 mg/kg): approximately 17 fold | mean fold higher AUC for anagrelide than when the drug itself was administered ([7]; po, 6.1 mg/kg): 16 fold | prodrug found in human plasma (conversion to anagrelide) [9]: no prodrug could be found
